Reference: patent publication US20100035755A1, “METHOD OF CONTROLLING WEEDS IN A TURF GRASS BY USING SULFONYLUREA COMPOUNDS” (Moghu Research Center Ltd., priority 2008, published 2010)

Tests used:
[1] = tested on: Kentucky bluegrass; test: Turf grass selectivity, greenhouse pot test; type: in vivo, Poa pratensis
Excerpt: (§1) Turf mats of Zoysia grass, bentgrass, Kentucky bluegrass, or perennial rye grass known as cool season turfgrass or western grass were purchased and cut into a piece having 10 cm×20 cm size. Then, each piece was transplanted in a rectangular plastic pot (surface area of 300 cm^2) in which sandy loam and mixed top soil (Boo-Nong Top Soil No. 3, for horticultural use) are filled in 1:1 ratio. After the transplantation, the grasses were cut once a week to maintain the blade height at 0.5-1.0 cm and cultivated for one month in a green house of which temperature was kept at 25˜30° C. for daytime and 15˜25° C. for nighttime, respectively. Then, the ‘test chemical’ of the above Examples 1 and 2 or ‘control chemical’ was applied thereto in an amount of 400, 200, 100, 50, 25, 12, 6, 3 g ai/ha. As a “control chemical”, pyrazolsulfuron ethyl wettable agent (manufactured by Dongbu Fine Chemicals; herein after, referred to as ‘control chemical No. 1’) and flazasulfuron (manufactured by Dongbu HiTek; herein after, referred to as ‘control chemical No. 2’), both sulfonylurea herbicides for a turf grass, were used. Application was carried out by using a track sprayer (R&D Sprayer, USA) equipped with Teejet 8002 nozzle (Spraying Systems Co., USA), and the application amount was adjusted to 2,000 L/ha, which is a typical application amount for a golf course in Korea. Application solution was prepared by diluting the “test chemical” or the “control chemical” with tap water. […] The test was repeated three times in a random arrangement and the results are given in average value of each test (see Table 2 below).

[2] = tested on: Perennial rye grass; test: Turf grass selectivity, greenhouse pot test; type: in vivo
Excerpt: as §1

[3] = tested on: Veronica officinalis; test: Weed spectrum, greenhouse pot test; type: in vivo; details: two weeks after application
Excerpt: (§2) To a rectangular plastic pot (surface area of 300 cm^2) in which sandy loam and mixed top soil (Boo-Nong Top Soil No. 3, for horticultural use) are filled in 1:1 ratio, eight different kinds of weed seeds including Poa annua and Digitaria sanguinalis as poaceae weed, Cyperus amuricus as cyperaceae weeds and Trifolium repens, Kummerowia striata, fleabane, Veronica officinalis and Portulaca oleracea as broadleaf weeds were sewn (50 to 100 seeds per each weed). These weeds are representative examples of the weeds which typically thrive in a turf grass field.
(§3) The pot was kept in a greenhouse which was maintained at 25˜30° C. for daytime and 15˜25° C. for nighttime, respectively, and irrigation was carried out regularly. Fourteen days after seeding, when the turf grass and the weeds reached approximately at three-leaf stage, the weed seeds were again sewn in separate two pots or “Test chemical” and “Control chemical” were applied in the same manner as the method described above. In this regard, when plants were cultivated for two weeks and then the chemical application was carried out, it is designated as “post-emergence” treatment. On the other than, when the seeding was carried right before the chemical application, it is designated as “pre-emergence” treatment. Preparation of a chemical solution, application method, etc. are the same as above described for evaluation of turf grass selectivity. Two weeks after the chemical application, efficacy of the chemicals for each type of the weeds was evaluated (visual evaluation) based on 0 to 100 scale (i.e., 0 indicates no efficacy and 100 indicates complete weed control).

[4] = tested on: Portulaca oleracea; test: Weed spectrum, greenhouse pot test; type: in vivo; details: two weeks after application
Excerpt: as §2, §3

[5] = tested on: Kummerowia striata; test: Weed spectrum, greenhouse pot test; type: in vivo; details: two weeks after application
Excerpt: as §2, §3

[6] = tested on: Digitaria sanguinalis; test: Weed spectrum, greenhouse pot test; type: in vivo; details: for efficacy (0-100 scale): two weeks after application
Excerpt: as §2, §3

[7] = tested on: Cyperus amuricus; test: Weed spectrum, greenhouse pot test; type: in vivo; details: two weeks after application
Excerpt: as §2, §3

[8] = tested on: Trifolium repens; test: Weed spectrum, greenhouse pot test; type: in vivo; details: two weeks after application
Excerpt: as §2, §3

[9] = tested on: Poa annua; test: Weed spectrum, greenhouse pot test; type: in vivo; details: for efficacy (0-100 scale): two weeks after application
Excerpt: as §2, §3

## COc1nc(C)nc(NC(=O)NS(=O)(=O)c2cscc2C2(CF)OCCO2)n1 [Example 2, 3-(2-fluoromethyl-1,3-dioxalan-2-yl)-N-[(4-methoxy-6-methyltriazin-2-yl)aminocarbonyl]4-thiophene sulfonamide]
[1]; 3 g ai/ha, 2 weeks
  phytotoxicity (visual assessment 0-10): 3
[1]; 3 g ai/ha, 4 weeks
  phytotoxicity (visual assessment 0-10): 1
[1]; 6 g ai/ha, 2 weeks
  phytotoxicity (visual assessment 0-10): 5
[1]; 6 g ai/ha, 4 weeks
  phytotoxicity (visual assessment 0-10): 3
[1]; 12 g ai/ha, 2 weeks
  phytotoxicity (visual assessment 0-10): 7
[1]; 12 g ai/ha, 4 weeks
  phytotoxicity (visual assessment 0-10): 5
[1]; 25 g ai/ha, 2 weeks
  phytotoxicity (visual assessment 0-10): 10
[1]; 25 g ai/ha, 4 weeks
  phytotoxicity (visual assessment 0-10): 10
[1]; 50 g ai/ha, 2 weeks
  phytotoxicity (visual assessment 0-10): 10
[1]; 50 g ai/ha, 4 weeks
  phytotoxicity (visual assessment 0-10): 10
[1]; 100 g ai/ha, 2 weeks
  phytotoxicity (visual assessment 0-10): 10
[1]; 100 g ai/ha, 4 weeks
  phytotoxicity (visual assessment 0-10): 10
[1]; 200 g ai/ha, 2 weeks
  phytotoxicity (visual assessment 0-10): 10
[1]; 200 g ai/ha, 4 weeks
  phytotoxicity (visual assessment 0-10): 10
[1]; 400 g ai/ha, 2 weeks
  phytotoxicity (visual assessment 0-10): 10
[1]; 400 g ai/ha, 4 weeks
  phytotoxicity (visual assessment 0-10): 10
[2]; 3 g ai/ha, 2 weeks
  phytotoxicity (visual assessment 0-10): 3
[2]; 3 g ai/ha, 4 weeks
  phytotoxicity (visual assessment 0-10): 1
[2]; 6 g ai/ha, 2 weeks
  phytotoxicity (visual assessment 0-10): 5
[2]; 6 g ai/ha, 4 weeks
  phytotoxicity (visual assessment 0-10): 3
[2]; 12 g ai/ha, 2 weeks
  phytotoxicity (visual assessment 0-10): 7
[2]; 12 g ai/ha, 4 weeks
  phytotoxicity (visual assessment 0-10): 5
[2]; 25 g ai/ha, 2 weeks
  phytotoxicity (visual assessment 0-10): 10
[2]; 25 g ai/ha, 4 weeks
  phytotoxicity (visual assessment 0-10): 10
[2]; 50 g ai/ha, 2 weeks
  phytotoxicity (visual assessment 0-10): 10
[2]; 50 g ai/ha, 4 weeks
  phytotoxicity (visual assessment 0-10): 10
[2]; 100 g ai/ha, 2 weeks
  phytotoxicity (visual assessment 0-10): 10
[2]; 100 g ai/ha, 4 weeks
  phytotoxicity (visual assessment 0-10): 10
[2]; 200 g ai/ha, 2 weeks
  phytotoxicity (visual assessment 0-10): 10
[2]; 200 g ai/ha, 4 weeks
  phytotoxicity (visual assessment 0-10): 10
[2]; 400 g ai/ha, 2 weeks
  phytotoxicity (visual assessment 0-10): 10
[2]; 400 g ai/ha, 4 weeks
  phytotoxicity (visual assessment 0-10): 10
[3]; Post-emergence, 12 g ai/ha
  efficacy (0-100 scale): 20
[3]; Post-emergence, 25 g ai/ha
  efficacy (0-100 scale): 20
[3]; Post-emergence, 50 g ai/ha
  efficacy (0-100 scale): 20
[3]; Post-emergence, 100 g ai/ha
  efficacy (0-100 scale): 20
[3]; Pre-emergence, 12 g ai/ha
  efficacy (0-100 scale): 30
[3]; Pre-emergence, 25 g ai/ha
  efficacy (0-100 scale): 30
[3]; Pre-emergence, 50 g ai/ha
  efficacy (0-100 scale): 40
[3]; Pre-emergence, 100 g ai/ha
  efficacy (0-100 scale): 50
[4]; Post-emergence, 12 g ai/ha
  efficacy (0-100 scale): 70
[4]; Post-emergence, 25 g ai/ha
  efficacy (0-100 scale): 90
[4]; Post-emergence, 50 g ai/ha
  efficacy (0-100 scale): 100
[4]; Post-emergence, 100 g ai/ha
  efficacy (0-100 scale): 100
[4]; Pre-emergence, 12 g ai/ha
  efficacy (0-100 scale): 90
[4]; Pre-emergence, 25 g ai/ha
  efficacy (0-100 scale): 90
[4]; Pre-emergence, 50 g ai/ha
  efficacy (0-100 scale): 100
[4]; Pre-emergence, 100 g ai/ha
  efficacy (0-100 scale): 100
[5]; Post-emergence, 12 g ai/ha
  efficacy (0-100 scale): 70
[5]; Post-emergence, 25 g ai/ha
  efficacy (0-100 scale): 70
[5]; Post-emergence, 50 g ai/ha
  efficacy (0-100 scale): 100
[5]; Post-emergence, 100 g ai/ha
  efficacy (0-100 scale): 100
[5]; Pre-emergence, 12 g ai/ha
  efficacy (0-100 scale): 70
[5]; Pre-emergence, 25 g ai/ha
  efficacy (0-100 scale): 90
[5]; Pre-emergence, 50 g ai/ha
  efficacy (0-100 scale): 90
[5]; Pre-emergence, 100 g ai/ha
  efficacy (0-100 scale): 100
[6]; 50 to 100 g/ha
  weed controlled: at least 90%
[6]; Post-emergence, 12 g ai/ha
  efficacy (0-100 scale): 40
[6]; Post-emergence, 25 g ai/ha
  efficacy (0-100 scale): 70
[6]; Post-emergence, 50 g ai/ha
  efficacy (0-100 scale): 90
[6]; Post-emergence, 100 g ai/ha
  efficacy (0-100 scale): 100
[6]; Pre-emergence, 12 g ai/ha
  efficacy (0-100 scale): 95
[6]; Pre-emergence, 25 g ai/ha
  efficacy (0-100 scale): 95
[6]; Pre-emergence, 50 g ai/ha
  efficacy (0-100 scale): 100
[6]; Pre-emergence, 100 g ai/ha
  efficacy (0-100 scale): 100
[7]; Post-emergence, 12 g ai/ha
  efficacy (0-100 scale): 30
[7]; Post-emergence, 25 g ai/ha
  efficacy (0-100 scale): 40
[7]; Post-emergence, 50 g ai/ha
  efficacy (0-100 scale): 50
[7]; Post-emergence, 100 g ai/ha
  efficacy (0-100 scale): 50
[7]; Pre-emergence, 12 g ai/ha
  efficacy (0-100 scale): 20
[7]; Pre-emergence, 25 g ai/ha
  efficacy (0-100 scale): 30
[7]; Pre-emergence, 50 g ai/ha
  efficacy (0-100 scale): 50
[7]; Pre-emergence, 100 g ai/ha
  efficacy (0-100 scale): 60
[8]; Post-emergence, 12 g ai/ha
  efficacy (0-100 scale): 40
[8]; Post-emergence, 25 g ai/ha
  efficacy (0-100 scale): 50
[8]; Post-emergence, 50 g ai/ha
  efficacy (0-100 scale): 60
[8]; Post-emergence, 100 g ai/ha
  efficacy (0-100 scale): 60
[8]; Pre-emergence, 12 g ai/ha
  efficacy (0-100 scale): 30
[8]; Pre-emergence, 25 g ai/ha
  efficacy (0-100 scale): 60
[8]; Pre-emergence, 50 g ai/ha
  efficacy (0-100 scale): 70
[8]; Pre-emergence, 100 g ai/ha
  efficacy (0-100 scale): 90
[9]; 50 to 100 g/ha
  weed controlled: at least 90%
[9]; Post-emergence, 12 g ai/ha
  efficacy (0-100 scale): 60
[9]; Post-emergence, 25 g ai/ha
  efficacy (0-100 scale): 80
[9]; Post-emergence, 50 g ai/ha
  efficacy (0-100 scale): 90
[9]; Post-emergence, 100 g ai/ha
  efficacy (0-100 scale): 95
[9]; Pre-emergence, 12 g ai/ha
  efficacy (0-100 scale): 50
[9]; Pre-emergence, 25 g ai/ha
  efficacy (0-100 scale): 60
[9]; Pre-emergence, 50 g ai/ha
  efficacy (0-100 scale): 90
[9]; Pre-emergence, 100 g ai/ha
  efficacy (0-100 scale): 90
